Test results: patent US10722471B2, “Galenic formulations of organic compounds” (Novartis AG, priority 2016, dated 2020)

Test: Relative bioavailability and food effect of 200 mg LCZ696 mini-tablets vs 200 mg FMI tablet; randomized, open-label, single dose, crossover study;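 also: crossover design with one dose per period, healthy volunteers, 40 enrolled and 39 completing the study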
Settings: label = analyte; for extent of absorption (AUCs) with a high fat meal: LCZ696 200 mg mini-tablets sprinkled on pudding; for Cmax, geometric mean ratio, Mini tablets vs FMI tablet (Fasting) / AUCinf, geometric mean ratio, Mini tablets vs FMI tablet (Fasting) / AUClast, geometric mean ratio, Mini tablets vs FMI tablet (Fasting) / Cmax, geometric mean ratio, Pudding + High fat meal vs Pudding (Mini tablets) / AUCinf, geometric mean ratio, Pudding + High fat meal vs Pudding (Mini tablets) / AUClast, geometric mean ratio, Pudding + High fat meal vs Pudding (Mini tablets) / Cmax, geometric mean ratio, Pudding vs fasting (Mini tablets) / AUCinf, geometric mean ratio, Pudding vs fasting (Mini tablets) / AUClast, geometric mean ratio, Pudding vs fasting (Mini tablets): LCZ696 200 mg single oral dose, healthy subjects; for Cmax, geometric mean ratio, Mini tablets vs FMI tablet (Fasting) / AUCinf, geometric mean ratio, Mini tablets vs FMI tablet (Fasting) / AUClast, geometric mean ratio, Mini tablets vs FMI tablet (Fasting): test minitablets / reference FMI tablet; for Cmax, geometric mean ratio, Mini tablets vs FMI tablet (Fasting) / Cmax, geometric mean ratio, Pudding + High fat meal vs Pudding (Mini tablets) / Cmax, geometric mean ratio, Pudding vs fasting (Mini tablets): parameter head prints ng/ml; for AUCinf, geometric mean ratio, Mini tablets vs FMI tablet (Fasting) / AUClast, geometric mean ratio, Mini tablets vs FMI tablet (Fasting) / AUCinf, geometric mean ratio, Pudding + High fat meal vs Pudding (Mini tablets) / AUClast, geometric mean ratio, Pudding + High fat meal vs Pudding (Mini tablets) / AUCinf, geometric mean ratio, Pudding vs fasting (Mini tablets) / AUClast, geometric mean ratio, Pudding vs fasting (Mini tablets): parameter head prints ng·h/ml; for Cmax, geometric mean ratio, Pudding + High fat meal vs Pudding (Mini tablets) / AUCinf, geometric mean ratio, Pudding + High fat meal vs Pudding (Mini tablets) / AUClast, geometric mean ratio, Pudding + High fat meal vs Pudding (Mini tablets): test minitablets on pudding + high fat meal / reference minitablets with pudding; for Cmax, geometric mean ratio, Pudding vs fasting (Mini tablets) / AUCinf, geometric mean ratio, Pudding vs fasting (Mini tablets) / AUClast, geometric mean ratio, Pudding vs fasting (Mini tablets): test minitablets with pudding / reference minitablets; for decrease of Cmax with a high fat meal: single dose LCZ696 200 mg mini-tablets sprinkled on pudding

Row | Structure (SMILES) | extent of absorption (AUCs) with a high fat meal | Cmax, geometric mean ratio, Mini tablets vs FMI tablet (Fasting) | AUCinf, geometric mean ratio, Mini tablets vs FMI tablet (Fasting) | AUClast, geometric mean ratio, Mini tablets vs FMI tablet (Fasting) | Cmax, geometric mean ratio, Pudding + High fat meal vs Pudding (Mini tablets) | AUCinf, geometric mean ratio, Pudding + High fat meal vs Pudding (Mini tablets) | AUClast, geometric mean ratio, Pudding + High fat meal vs Pudding (Mini tablets) | Cmax, geometric mean ratio, Pudding vs fasting (Mini tablets) | AUCinf, geometric mean ratio, Pudding vs fasting (Mini tablets) | AUClast, geometric mean ratio, Pudding vs fasting (Mini tablets) | decrease of Cmax with a high fat meal
1 | C[C@H](C[C@@H](Cc1ccc(-c2ccccc2)cc1)NC(=O)CCC(=O)O)C(=O)O [LBQ657, (2R,4S)-5-biphenyl-4-yl-4-(3-carboxy-propionylamino)-2-methyl-pentanoic acid] | comparable | 0.95 | 0.98 | 0.98 | 0.81 | 1.02 | 1.02 | 0.99 | 1.01 | 1.01 | 19%
2 | CCOC(=O)[C@H](C)C[C@@H](Cc1ccc(-c2ccccc2)cc1)NC(=O)CCC(=O)O [Sacubitril, (2R,4S)-5-biphenyl-4-yl-4-(3-carboxy-propionylamino)-2-methyl-pentanoic acid ethyl ester] | comparable | 0.94 | 0.96 | 0.96 | 0.4 | 1.01 | 1.00 | 1.00 | 1.04 | 1.04 | 60%
3 | CCCCC(=O)N(Cc1ccc(-c2ccccc2-c2nnn[nH]2)cc1)[C@H](C(=O)O)C(C)C [Valsartan, S—N-valeryl-N-{[2′-(1H-tetrazole-5-yl)-biphenyl-4-yl]-methyl}-valine] | – | 1.09 | 1.11 | 1.11 | 0.43 | 0.6 | 0.59 | 1.02 | 1.02 | 1.04 | 57%
